Source: patent US11111222B2, “Hydroxyeicosatrienoic acid compounds and their use as therapeutic agents” (THE REGENTS OF THE UNIVERSITY OF MICHIGAN, priority 2016, dated 2021)

Tests used:
[1] = Cremaster muscle arterial puncture model of hemostasis; assay type: in vivo, mouse; conditions: laser puncture of cremaster arteriole; vs control treated mice
Method: Mice were anesthetized, tail vein injected with anti-platelet and anti-fibrin antibodies and their cremaster muscle arterioles were prepared as described above. A high intensity laser pulse from the laser ablation system was used to puncture a hole in the cremaster muscle arteriole wall as visualized by red blood cell (RBC) leakage from the vessel. Images of RBCs leakage and hemostatic plug formation were acquired in real-time with a fluorescent microscope as described above. Arterial bleeding time was defined as the time from laser pulse injury until cessation of RBC leakage from the vessel.

[2] = test system: washed human platelets; test: Human platelet aggregation after pre-treatment with adenylyl cyclase inhibitor SQ 22536; assay type: cell-based; conditions: platelets pre-treated with SQ 22536 (25 μM, 20 min); 12-HETrE 7.5 to 25 μM, 1 min; EC80 PAR4-AP
Method: Blood from healthy donors was collected into vacutainers containing buffered sodium citrate, and platelets were isolated by serial centrifugation as described above for mouse platelets. The platelets were resuspended in Tyrode's buffer at 3×10^8 platelets/mL, unless otherwise specified.
A lumi-aggregometer (Chrono-log model 700D) was used to measure platelet aggregation under stirring conditions (1100 rpm) at 37° C. […]

[3] = Tail bleeding assay; assay type: in vivo, mouse; conditions: mice retro-orbitally injected; 5 mm tail tip excised; vs control
Method: Mice were anesthetized with ketamine/xyzaline and placed on a heating pad in prone position, the tip of the tail (5 mm) was excised with a sterile scalpel, and the tails were immediately immersed into isotonic saline solution (0.9%) warmed to 37° C. Bleeding time was assessed until cessation of blood flow from the tail for 1 minute.

[4] = test system: thrombus formation (platelet and fibrin) in cremaster arterioles; test: Laser-induced cremaster arteriole thrombosis model; assay type: in vivo, mouse
Method: Wild type (WT) or 12-LOX^−/− mice (12 weeks of age) were anesthetized by intraperitoneal injection of ketamine/xylazine (100 mg/kg) prior to the exposure of the cremaster muscle arterioles under a dissecting microscope with constant perfusion of preheated bicarbonate-buffered saline (Reheman et al., J Thromb Haemost 3:875-883, 2005; Reheman et al., Blood 113:1809-1817, 2009; Wang et al., J Clin Invest 124:4281-4293, 2014). Anti-platelet (DyLight 488 anti-GPIb, 1 μg/g) and anti-fibrin (Alexa Fluor 647, 0.3 μg/g) antibodies were administered via jugular vein catheter prior to intravital microscopy. DGLA (50 mg/kg) or DMSO (vehicle control) were dissolved in a formulation of 5% DMSO and 45% PEG300 in sterile 1×PBS and then intravenously injected into mice 10 minutes prior to induction of thrombosis. 12(S)-HETrE (6 mg/kg) or equal volume of DMSO (vehicle control) was also intravenously injected into mice 10 minutes prior to induction of thrombosis. Multiple independent thrombi were induced in the arterioles (30-50 μm diameter) in each mouse by a laser ablation system (Ablate! photoablation system; Intelligent Imaging Innovations, Denver, Colo., USA). Images of thrombus formation were acquired in real-time under 63× water-immersion objective with a Zeiss Axio Examiner Z1 fluorescent microscope equipped with solid laser launch system (LaserStack; Intelligent Imaging Innovations) and high-speed sCMOS camera. All captured images were analyzed on Slidebook (Intelligent Imaging Innovations Inc., Denver, Colo., USA).

[5] = test system: washed platelets from WT or 12-LOX−/− mice; test: Platelet aggregation, washed murine platelets (lumi-aggregometer); assay type: cell-based, mouse; conditions: 25 μM 12-LOX oxylipin, 10 min, vs vehicle
Method: The 12-LOX null C57BL/6 (12-LOX^−/−) mice were generated using homozygous breeding pairs and wild-type (WT) C57BL/6 ([…]) mice were purchased (Jackson Laboratory). […] Mouse blood was diluted with equal volumes of Tyrode's buffer (10 mM HEPES, 11.9 mM sodium bicarbonate, 127.2 mM sodium chloride, 5 mM potassium chloride, 0.4 mM sodium phosphate monobasic, 1 mM magnesium chloride, and 5 mM D-glucose) and centrifuged at 200×g. Platelet-rich-plasma (PRP) was transferred to a tube containing 10× acid citrate dextrose solution (ACD) (2.5% sodium citrate, 1.5% citric acid, and 2% D-glucose) and apyrase (0.02 U/mL), and centrifuged at 2000×g. Platelet count was adjusted to 3×10^8 platelets/mL with Tyrode's buffer for all studies.
A lumi-aggregometer (Chrono-log model 700D) was used to measure platelet aggregation under stirring conditions (1100 rpm) at 37° C. Prior to agonist stimulation platelets were incubated with a preselected PUFA or oxylipin for 10 minutes.

[6] = test system: Gαs; test: [35S]GTPγS binding to immunoprecipitated Gαs, platelet membranes; assay type: biochemical; conditions: 25 μM; human platelet membranes; vs DMSO
Method: PRP was isolated from whole blood as described above and then incubated with 1 mM aspirin for 1 hour at 37° C. Platelets were pelleted at 2000 g for 10 min in the presence of 10×ACD and apyrase. The pelleted platelets were washed with Tyrode's and centrifuged at 2000×g with 10×ACD for 10 min at room temperature. The platelets were flash frozen with liquid nitrogen and then resuspended in cold detergent-free TME buffer (50 mM Tris-HCl, pH 7.5, 20 mM MgCl2, 2 mM EDTA, and 100 mM NaCl) with 1 μM GDP and protease and phosphatase inhibitors to lyse the platelets. The lysed platelets were centrifuged at 1500 g at 4° C. for 5 min. The supernatant was collected and centrifuged at 100,000×g for 30 min at 4° C. The pelleted membranes were resuspended in TME buffer with 1 μM GDP and stored at −80° C. prior to use. Fatty acid metabolites, agonists, or DMSO and [^35S]GTPγS (10 nM) were added to platelet membranes (60 μg/reaction) on ice, and the tubes were immediately transferred to a 30° C. water bath shaker for 20 min. The reaction was terminated by the addition of ice-cold IP buffer (50 mM Tris-HCl, pH 7.5, 20 mM MgCl2, 150 mM NaCl, 0.5% Nonidet P-40, 0.33% aprotinin, 0.1 mM GDP, and 0.1 mM GTP). The samples were pre-cleared with Protein A agarose beads and normal rabbit IgG for 30 min on a nutator at 4° C. and then aliquoted equally into two tubes containing either normal rabbit IgG or a Gs antibody that had been conjugated to Protein A agarose beads. The samples were incubated on a nutator for 1 hr at 4° C. and washed 4 times with IP buffer and 1 time in TME buffer. The samples were boiled in 0.5% SDS for 30 sec, and the supernatants were collected following brief centrifugation. The supernatants were analyzed in 8 mL of scintillation fluid. The background counts for the normal rabbit IgG (50-200 cpm) for each sample were subtracted from the anti-Gs immunoprecipitated samples prior to analyzing the data.

[7] = WT mice, 6 mg/kg i.v. 10 min before laser injury, vs vehicle

With `CCCCC/C=C\C[C@H](O)/C=C/C=C\CCCCCCC(=O)O` [12(S)-HETrE, 12(S)-hydroxy-8Z,10E,14Z-eicosatrienoic acid] the “duration of RBC leakage (arterial bleeding time)” value [1] was “No significant difference in the duration of RBC leakage”, the PAR4-AP-mediated platelet aggregation [2] was “unable to inhibit PAR4-AP-mediated platelet aggregation” and the tail bleeding time [3] was “no significant difference in tail bleeding time”. The platelet accumulation ([4]; 12-LOX−/− mice, 6 mg/kg i.v., vs 12-LOX−/− alone) was “significant inhibition of platelet accumulation”, the fibrin accumulation ([4]; 12-LOX−/− mice, 6 mg/kg i.v., vs vehicle) was “no difference in fibrin accumulation” and the “thrombus size and stability by fibrin accumulation” value [4, 7] was “significantly smaller and less stable thrombi”. For the same compound, the “thrombus size and stability by platelet accumulation” value [4, 7] was “significantly smaller and less stable thrombi”, the platelet aggregation ([5]; 12-LOX−/− mouse platelets, EC80 PAR4-AP (200 μM) or collagen (2 or 5 μg/mL)) was “inhibited the aggregation” and the platelet aggregation ([5]; WT mouse platelets, EC80 PAR4-AP (100 μM) or collagen (5 μg/mL)) was “inhibited the aggregation”. For the same compound, the “[35S]GTPγS binding to immunoprecipitated Gαs” value [6] was “significant increase in [^35S]GTPγS binding”.
